Earlier results as cited in patent US20110038802A1, “METHOD OF DETERMINING ALANINE TRANSAMINASE (ALT) ACTIVITY BY 13C-MR DETECTION USING HYPERPOLARISED 13C-PYRUVATE” (priority 2008, published 2011).

Conditions: human full blood, 37° C.

CC(=O)C(=O)O [^13C1-pyruvate, sodium ^13C1-pyruvate]
T1 relaxation: about 42 s
